Test results reported in US10407467B2, “Polymyxin derivatives and their use in combination therapy together with different antibiotics” (priority 2013, dated 2019).
Where a name gives a salt, the structure may show the parent alone. Bridge positions count the residues as written; N and C are the ends. Square brackets hold non-standard residues; d marks the D form. Peptide text beside a SMILES is read from it. * marks the point of attachment. Dab = NCC[C@H](N)C(=O)O; X3 = O=C([C@H]1CCCNC1)*

Legend:
[1] = system: Escherichia coli; test: MIC, compound in combination with a second agent (broth microdilution); type: cell-based; conditions: 1:1 (wt:wt) combination with Rifampicin
How it was run: (§1)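 Read-out is the total-drug MIC of a 1:1 weight ratio combination with another agent, e.g. rifampicin. Duplicates within 2-fold gave the lower value; wider spread meant a non-valid assay. Where compounds were tested multiple times, the mode is given.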

[2] = system: Klebsiella pneumoniae; test: as above; type: cell-based; conditions: 1:1 (wt:wt) combination with Rifampicin
How it was run: as §1

[3] = system: Acinetobacter baumannii; test: as above; type: cell-based; conditions: 1:1 (wt:wt) combination with Rifampicin
How it was run: as §1

[4] = system: Pseudomonas aeruginosa; test: as above; type: cell-based; conditions: 1:1 (wt:wt) combination with Rifampicin
How it was run: as §1

[5] = system: P. aeruginosa ATCC27853; type: in vivo, Pseudomonas aeruginosa; conditions: ATCC27853, in vivo, iv, 5 mg/kg, 6 h
Protocol: Compounds were administered in solution by intravenous (IV) bolus injection into the lateral tail vein. […] At 1 hour post infection, 4 animals were humanely euthanized using pentabarbitone overdose to provide a pre-treatment control group. At 9 hours post infection, the clinical condition of all animals was assessed prior to them being humanely euthanized by pentabarbitone overdose. Animal weight was determined before both thighs were removed and weighed individually. Individual thigh tissue samples were homogenized in ice cold sterile phosphate buffered saline. Thigh homogenates were then quantitatively cultured onto CLED agar and incubated at 37° C. for 24 hours before colonies were counted.

[6] = system: Escherichia coli; test: MIC, sole activity (no second agent); type: cell-based; conditions: Table 6A; no second agent; different supplier of Cation-adjusted MHB
How it was run: (§2)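 Up to four strains per species were tested in cation-adjusted Mueller-Hinton broth, with inoculum made by direct colony suspension from 18-24 hour Mueller-Hinton agar plates, adjusted to 0.5 McFarland. Duplicates differing by under 2-fold gave the lower value; greater spread voided the run. Values are relative to Polymyxin B.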

[7] = system: Klebsiella pneumoniae; test: MIC, sole activity (no second agent); type: cell-based; conditions: Table 6A; no second agent; different supplier of Cation-adjusted MHB
How it was run: as §2

[8] = system: Acinetobacter baumannii; test: MIC, sole activity (no second agent); type: cell-based; conditions: Table 6A; no second agent; different supplier of Cation-adjusted MHB
How it was run: as §2

[9] = system: Pseudomonas aeruginosa; test: MIC, sole activity (no second agent); type: cell-based; conditions: Table 6A; no second agent; different supplier of Cation-adjusted MHB
How it was run: as §2

[10] = system: HK-2 cell line; test: In vitro renal cell toxicity assay (resazurin reduction); type: cell-based, human
[11] = MIC is total drug concentration

Structure (SMILES): CC(C)C[C@@H]1NC(=O)[C@@H](Cc2ccccc2)NC(=O)[C@H](CCN)NC(=O)[C@@H](NC(=O)[C@H](CCN)NC(=O)[C@@H](NC(=O)[C@H]2CCCNC2)[C@@H](C)O)CCNC(=O)[C@H]([C@@H](C)O)NC(=O)[C@H](CCN)NC(=O)[C@H](CCN)NC1=O [Example 37, (S)-Piperidine-3-carbonyl polymyxin B nonapeptide, trifluoroacetate salt] (X3-T[Dab][Dab][Dab][dF]L[Dab][Dab]T; lactam 3-C)
- MIC E. coli ATCC25922 ([1]; MIC = total drug concentration, strain ATCC25922): 0.125 micrograms/mL
- MIC E. coli NCTC9001 ([1]; MIC = total drug concentration, strain NCTC9001): ≤0.06 micrograms/mL
- MIC E. coli ATCC25922 [1, 11]: 0.125 micrograms/mL
- MIC E. coli NCTC9001 [1, 11]: ≤0.06 micrograms/mL
- MIC K. pneumoniae ATCC-BAA-2146 ([2]; MIC = total drug concentration, strain ATCC-BAA-2146): 0.125 micrograms/mL
- MIC K. pneumoniae CCUG-59348 ([2]; MIC = total drug concentration, strain CCUG-59348): 2 micrograms/mL
- MIC K. pneumoniae NCTC 13438 ([2]; MIC = total drug concentration, strain NCTC 13438): 0.125 micrograms/mL
- MIC K. pneumoniae ATCC-BAA-2146 [2, 11]: 0.125 micrograms/mL
- MIC K. pneumoniae CCUG-59348 [2, 11]: 2 micrograms/mL
- MIC K. pneumoniae NCTC 13438 [2, 11]: 0.125 micrograms/mL
- MIC A. baumannii ATCC BAA-747 ([3]; MIC = total drug concentration, strain ATCC BAA-747): ≤0.06 micrograms/mL
- MIC A. baumannii CCUG57249 ([3]; MIC = total drug concentration, strain CCUG57249): ≤0.06 micrograms/mL
- MIC A. baumannii NCTC 13423 ([3]; MIC = total drug concentration, strain NCTC 13423): ≤0.06 micrograms/mL
- MIC A. baumannii NCTC 13424 ([3]; MIC = total drug concentration, strain NCTC 13424): ≤0.06 micrograms/mL
- MIC A. baumannii ATCC BAA-747 [3, 11]: ≤0.06 micrograms/mL
- MIC A. baumannii CCUG57249 [3, 11]: ≤0.06 micrograms/mL
- MIC A. baumannii NCTC 13423 [3, 11]: ≤0.06 micrograms/mL
- MIC A. baumannii NCTC 13424 [3, 11]: ≤0.06 micrograms/mL
- MIC P. aeruginosa ATCC 27853 ([4]; MIC = total drug concentration, strain ATCC 27853): ≤0.06 micrograms/mL
- MIC P. aeruginosa ATCC CRM-9027 ([4]; MIC = total drug concentration, strain ATCC CRM-9027): 0.125 micrograms/mL
- MIC P. aeruginosa ATCC-47 ([4]; MIC = total drug concentration, strain ATCC-47): ≤0.06 micrograms/mL
- MIC P. aeruginosa CCUG 59626 ([4]; MIC = total drug concentration, strain CCUG 59626): ≤0.06 micrograms/mL
- MIC P. aeruginosa ATCC 27853 [4, 11]: ≤0.06 micrograms/mL
- MIC P. aeruginosa ATCC CRM-9027 [4, 11]: 0.125 micrograms/mL
- MIC P. aeruginosa ATCC-47 [4, 11]: ≤0.06 micrograms/mL
- MIC P. aeruginosa CCUG 59626 [4, 11]: ≤0.06 micrograms/mL
- log reduction in bacterial counts compared to non-treated control [5]: 1.75 log
- MIC E. coli ATCC25922 [6]: 0.5 micrograms/mL
- MIC E. coli NCTC 13441 [6]: 0.5 micrograms/mL
- MIC K. pneumoniae ATCC 4352 [7]: 0.25 micrograms/mL
- MIC K. pneumoniae ATCC BAA-2146 [7]: 0.25 micrograms/mL
- MIC A. baumannii ATCC BAA-747 [8]: 2 micrograms/mL
- MIC A. baumannii NCTC 13424 [8]: 1 micrograms/mL
- MIC P. aeruginosa ATCC 27853 [9]: 0.5 micrograms/mL
- MIC P. aeruginosa CCUG 59347 [9]: 2 micrograms/mL
- HK-2 IC50 rel to PMB [10]: 21
